Columns and labels:
Format in all cases: cell-based
ESKAPE pathogens = test: MIC micro broth dilution assay, statements and stacked scores over all ESKAPE pathogens; conditions: for pathogens against which the compound showed activity at 10 ug/ml / pathogens against which the compound showed activity at 25 ug/ml / pathogens against which the compound showed activity at 5 ug/ml / pathogens against which the compound showed activity at 4 ug/ml: letters E,S,K,A,P,E = ESKAPE pathogens, — = none; for stacked score Total: stacked score over all ESKAPE pathogens (details in Table S4b); for Total stacked score: sum over all six ESKAPE pathogens
Experimental: (§1) For this study we used a representative panel of multi-drug resistant clinical ESKAPE pathogen isolates (Supplemental Table S6).^42 43 3a, 44 45 Gram-positive organisms were grown in tryptic soy broth media (TSB), whilst Gram-negative organisms were grown in lysogeny Broth (LB), as described by us previously. ^43 MIC and MBC determination assays.
(§2) The minimum inhibitory concentration (MIC) for the combinatorial libraries, deconvolved 2157 library, and individual compounds were determined as follows. Broth cultures of ESKAPE strains were grown overnight before being diluted 1 in 1,000 in fresh media. Sterile 96-well plates were loaded with culture and compounds (in DMF) were added at decreasing concentrations to equal a total volume of 200 μl per well. Care was taken to not add more than 2.0% DMF to any well. Plates were then incubated at 37° C., and MICs determined after 24 hours by visual inspection for a lack of turbidity in wells. All assays were performed in triplicate with identical results obtained. For both the scaffold ranking and positional scanning samples, relative broad-spectrum activity was determined via stacked scores: […]

Enterobacter cloacae = test: MIC micro broth dilution assay; parameters: key to stacked score activity, 100/MIC, E: stacked score = 100/MIC; conditions: E. cloacae
Experimental: as §1
as §2, with “Broth” for “The minimum inhibitory concentration (MIC) for the combinatorial libraries, deconvolved 2157 library, and individual compounds were determined as follows. Broth”

Enterococcus faecium = test: MIC micro broth dilution assay; parameters: key to stacked score activity, 100/MIC, E: stacked score = 100/MIC; conditions: E. faecium
Experimental: as §1
as §2, with “Broth” for “The minimum inhibitory concentration (MIC) for the combinatorial libraries, deconvolved 2157 library, and individual compounds were determined as follows. Broth”

Acinetobacter baumannii = test: MIC micro broth dilution assay; parameters: key to stacked score activity, 100/MIC, A: stacked score = 100/MIC; conditions: A. baumannii
Experimental: as §1
as §2, with “Broth” for “The minimum inhibitory concentration (MIC) for the combinatorial libraries, deconvolved 2157 library, and individual compounds were determined as follows. Broth”

Klebsiella pneumoniae = test: MIC micro broth dilution assay; parameters: key to stacked score activity, 100/MIC, K: stacked score = 100/MIC; conditions: K. pneumoniae
Experimental: as §1
as §2, with “Broth” for “The minimum inhibitory concentration (MIC) for the combinatorial libraries, deconvolved 2157 library, and individual compounds were determined as follows. Broth”

Staphylococcus aureus = test: MIC micro broth dilution assay; parameters: key to stacked score activity, 100/MIC, S: stacked score = 100/MIC; conditions: S. aureus
Experimental: as §1
as §2, with “Broth” for “The minimum inhibitory concentration (MIC) for the combinatorial libraries, deconvolved 2157 library, and individual compounds were determined as follows. Broth”

SMILES | stacked score activity, 100/MIC, E (Enterobacter cloacae) | stacked score activity, 100/MIC, E (Enterococcus faecium) | stacked score activity, 100/MIC, A (Acinetobacter baumannii) | stacked score activity, 100/MIC, K (Klebsiella pneumoniae) | stacked score activity, 100/MIC, S (Staphylococcus aureus) | pathogens against which the compound showed activity at 10 ug/ml (ESKAPE pathogens) | pathogens against which the compound showed activity at 25 ug/ml (ESKAPE pathogens) | pathogens against which the compound showed activity at 5 ug/ml (ESKAPE pathogens) | pathogens against which the compound showed activity at 4 ug/ml (ESKAPE pathogens) | stacked score Total (ESKAPE pathogens) | Total stacked score (ESKAPE pathogens)
CCCCC1CN(CCCCC2CNC(=N)N2CCC23CC4CC(CC(C4)C2)C3)C(=N)N1CCCCC1CCCCC1 (stereo not shown) [Compound 20] | 20 | 50 | 25 | 20 | 20 | ESKAPE | ESKAPE | ESKAPE | EAP | 160 | 160
CCCCCCCN1C(=N)N(CCCC[C@H]2CNC(=N)N2CCC23CC4CC(CC(C4)C2)C3)C[C@H]1Cc1cccc2ccccc12 [Compound 22] | 20 | 25 | 25 | 20 | 20 | ESKAE | ESKAPE | ESKAE | EAP |  | 
N=C1NC[C@H](CCCCN2C[C@@H](Cc3cccc4ccccc34)N(CCCCC3CCCCC3)C2=N)N1CCC12CC3CC(CC(C3)C1)C2 [Compound 23] | 0 | 4 | 0 | 0 | 25 |  | ESE |  |  |  | 
CCCCCCCN1C(=N)N(CCCC[C@H]2CNC(=N)N2CCC23CC4CC(CC(C4)C2)C3)C[C@@H]1CC1CCCCC1 [Compound 25] | 20 | 50 | 25 | 20 | 20 | ESKAPE | ESKAPE | ESKAPE | EAP |  | 
N=C1NC[C@H](CCCCN2C[C@H](CC3CCCCC3)N(CCCCC3CCCCC3)C2=N)N1CCC12CC3CC(CC(C3)C1)C2 [Compound 26] | 20 | 20 | 20 | 20 | 20 | ESKAPE | ESKAPE | ESKAPE |  |  | 

Continued, in another order:

stacked score activity, 100/MIC, E (Enterobacter cloacae) | stacked score activity, 100/MIC, E (Enterococcus faecium) | stacked score activity, 100/MIC, A (Acinetobacter baumannii) | stacked score activity, 100/MIC, K (Klebsiella pneumoniae) | stacked score activity, 100/MIC, S (Staphylococcus aureus) | SMILES | pathogens against which the compound showed activity at 10 ug/ml (ESKAPE pathogens) | pathogens against which the compound showed activity at 25 ug/ml (ESKAPE pathogens) | pathogens against which the compound showed activity at 5 ug/ml (ESKAPE pathogens) | pathogens against which the compound showed activity at 4 ug/ml (ESKAPE pathogens) | stacked score Total (ESKAPE pathogens) | Total stacked score (ESKAPE pathogens)
20 | 10 | 4 | 10 | 20 | N=C1NC[C@H](CCCCN2C[C@@H](Cc3cccc4ccccc34)N(CCc3ccc(-c4ccccc4)cc3)C2=N)N1CCCCC1CCCCC1 [Compound 15] | ESKE | ESKAPE |  |  |  | 
20 | 20 | 20 | 20 | 20 | N=C1NC[C@H](CCCCN2C[C@H](CC3CCCCC3)N(CCCCC3CCCCC3)C2=N)N1CCCCC1CCCCC1 [Compound 17] | ESKAPE | ESKAPE | ESKAPE |  |  | 
20 | 20 | 20 | 20 | 20 | N=C1NC[C@H](CCCCN2C[C@H](CC3CCCCC3)N(CCc3ccc(-c4ccccc4)cc3)C2=N)N1CCCCC1CCCCC1 [Compound 18] | ESKAPE | ESKAPE | ESKAPE |  |  | 
20 | 33 | 25 | 20 | 20 | CCCCC1CN(CCCCC2CNC(=N)N2CCC23CC4CC(CC(C4)C2)C3)C(=N)N1CCc1ccc(-c2ccccc2)cc1 (stereo not shown) [Compound 21] | ESKAPE | ESKAPE | ESKAPE |  | 123 | 123

From patent US20170065564A1, “BIS-CYCLIC GUANIDINE COMPOUND COMPOSITIONS, METHODS OF USE AND TREATMENT THEREOF” (University of South Florida, priority 2014, published 2017)
